Laboratory results taken from article PMC9548544, “Population pharmacokinetic model of vancomycin in postoperative neurosurgical patients” (Frontiers in Pharmacology, 2022).

Key:
[1] = Therapeutic drug monitoring of vancomycin serum concentration (chemiluminescence immunoassay); assay type: in vivo, human; settings: mostly steady state (>4 doses) trough, 895 observations from 560 patients, dose 951.19 ± 152.23 mg/time, SD
Method: Inclusion criteria were: 1) age ≥18 years; 2) therapeutic drug monitoring was performed during treatment and at least 1 vancomycin concentration was obtained. Exclusion criteria were: 1) pregnant women ([Lin et al., 2021]); 2) cystic fibrosis ([Jing et al., 2020]).
(§1) The dosage regimen of vancomycin is adjusted by the clinicians according to the patient’s conditions and renal function, including 1 g Qd, 1 g Q12h, 1 g Q8h, 0.5 g Qd, 0.5 g Q12h, 0.5 g Q8h and 0.5 g Q6h. The infusion time cannot be accurately obtained, but 1 h infusion was most used in clinical applications, so the default infusion time in this study was 1 h. Vancomycin serum concentrations were obtained from patient’s therapeutic drug monitoring data, most of which were steady state (>4 doses) trough concentrations. The blood samples were anticoagulated by Ethylene Diamine Tetraacetic Acid, centrifuged at 5,000 rpm for 3 min and analyzed by chemiluminescence immunoassay (ADVIA Centaur® XP, Siemens). Sample calibration and quality control were carried out in accordance with the manufacturer’s instructions and the calibration range was 0.67–90 mg/L.

[2] = Population pharmacokinetic (NLME, one-compartment) model of vancomycin in postoperative neurosurgical patients
Method: The data of patients who received vancomycin therapy from October 2018 to March 2022 in Beijing Tiantan Hospital, Capital Medical University were retrospectively collected. Inclusion criteria were: 1) age ≥18 years; 2) therapeutic drug monitoring was performed during treatment and at least 1 vancomycin concentration was obtained. Exclusion criteria were: 1) pregnant women ([Lin et al., 2021]); 2) cystic fibrosis ([Jing et al., 2020]).
as §1
In this study, nonlinear mixed effects modeling (NLME) method was used to construct the PPK model. Pharmacokinetic parameters and the variability were assessed using the first-order conditional estimation with extended least square method (FOCE-ELS) by using the Phoenix® NLME software (version 8.3; Certara, St. Louis, Missouri). Bootstrap and visual predictive check (VPC) were used to test the stability and predictive ability of the final model.
The one-compartment model with first-order elimination was used to describe the pharmacokinetic characteristics of vancomycin. The sparse trough concentration data led to the inaccurate estimation of the V. Therefore, the population typical value of V was fixed at 60.2 L according to a PPK model in Chinese neurosurgery adult patients ([Jing et al., 2020]).
Inter-individual variability (η) of PPK model was described by exponential random effect model in Eq. 1. Residual variability (ε) was described by combined (multiplicative and additive) error model in Eq. 2. The η was assumed to follow a normal distribution with a mean of zero and a variance of ω ^2. The ε was assumed to follow a normal distribution with a mean of zero and a variance of σ ^2. θi=θTV×e^ηi, (1) Cobs=Cpred+ε×1+(Cpred×σ1/σ2)^2 (2) where θ TV is the population typical value of pharmacokinetic parameters, θ i is the individual (i ^th) pharmacokinetic parameters. Cobs and Cpred respectively represent the measured concentration and predicted concentration of a patient; σ 1 represents the multiplicative σ, and σ 2 represents the standard deviation of ε.
Continuous covariates included age, height, BW, body mass index, serum creatinine (Scr), creatinine clearance (CLcr) and estimated glomerular filtration rate (eGFR). Categorical covariates included sex, RRT and concomitant drugs (mannitol, meropenem and diuretics). CLcr is calculated by the Cockcroft-Gault equation ([Cockcroft and Gault, 1976]). eGFR is calculated by the Chronic Kidney Disease Epidemiology Collaboration (CKD-EPI) equation ([Kong et al., 2013]). All continuous covariates are centered at their median values. The difference of the objective function value (OFV) was used to compare the models.
After the establishment of the base model, the effects of covariates on pharmacokinetic parameters were tested by forward addition and backward elimination under stepwise manner. In the forward addition, if the decrease of OFV was greater than 6.64 (p < 0.01, df = 1), the covariate was considered to have a significant influence on the model parameters.

[3] = fixed, not estimated, ref Jing et al., 2020, cited from earlier work
[4] = ref Rybak, 2006, cited from earlier work
[5] = ref Lin Wu et al., 2015; cited from earlier work

SMILES: CN[C@H](CC(C)C)C(=O)N[C@H]1C(=O)N[C@@H](CC(N)=O)C(=O)N[C@H]2C(=O)N[C@H]3C(=O)N[C@H](C(=O)N[C@H](C(=O)O)c4cc(O)cc(O)c4-c4cc3ccc4O)[C@H](O)c3ccc(c(Cl)c3)Oc3cc2cc(c3O[C@@H]2O[C@H](CO)[C@@H](O)[C@H](O)[C@H]2O[C@H]2C[C@](C)(N)[C@H](O)[C@H](C)O2)Oc2ccc(cc2Cl)[C@H]1O [vancomycin, Vancomycin]
- Concentration (mg/L), mean ± standard deviation [1]: 14.20 ± 7.36 mg/L
- Mannitol on CL (L/h), final model, Estimate (%RSE) ([2]; A in e^A of the CL equation when co-medicated with mannitol, final model): 0.13 (17.85) L/h
- Mannitol on CL (L/h), Bootstrap Median (%RSE) ([2]; A in e^A when co-medicated with mannitol, bootstrap, 5,000 data sets): 0.13 (17.72) L/h
- CL (L/h), base model, Estimate (%RSE) ([2]; base model without covariates): 8.08 (1.93) L/h
- CL (L/h), Bootstrap Median (%RSE) ([2]; bootstrap of final model, 5,000 data sets): 7.97 (2.24) L/h
- BW on CL (L/h), final model, Estimate (%RSE) ([2]; exponent of (BW/70) in the CL equation, final model): 0.30 (20.19) L/h
- BW on CL (L/h), Bootstrap Median (%RSE) ([2]; exponent of (BW/70), bootstrap, 5,000 data sets): 0.30 (19.91) L/h
- eGFR on CL (L/h), Bootstrap Median (%RSE) ([2]; exponent of (eGFR/115.2), bootstrap, 5,000 data sets): 0.80 (4.39) L/h
- CL (L/h), population typical value, final model, Estimate (%RSE) ([2]; final model, one-compartment, FOCE-ELS, 895 concentrations from 560 patients, iv infusion, covariates centred at eGFR 115.2, BW 70, no mannitol): 7.98 (1.90) L/h
- increase in vancomycin CL when co-medicated with mannitol ([2]; final model, with versus without mannitol): 14%
- typical value of vancomycin CL per body weight ([2]; this study, postoperative neurosurgical patients): 1.83 mL/min/kg
- V (L), base model ([3]; base model): 60.2 L
- V (L), Bootstrap ([3]; bootstrap): 60.2 L
- V (L), apparent distribution volume, final model ([3]; final model): 60.2 L
- absorption by oral administration ([4]; oral): almost not absorbed
- α half-life ([4]; patients with normal renal function, printed as 'approximately'): 0.5 to 1 h
- terminal elimination half-life ([4]; patients with normal renal function): 3 to 9 h
- protein binding rate ([4]; printed as 'about'): 10%–50%
- share of vancomycin excreted in prototype through the kidney ([4]; within 24 h after administration): more than 80%
- V in another eligible study [5]: 54 ± 17 L
